Entries after “also recorded” stand apart in the source; their conditions may differ.
How the values were obtained:
[1] = system: A549 Neh2 KO clones 1-17, 2-16, 2-23; assay: MTS assay of A549 Neh2 KO clones treated with cisplatin; format: cell-based, human; conditions: 1, 2, 3, 5, 10 uM cisplatin
Description: The lung adenocarcinoma-derived cell line, A549, was used transfected with CRISPR/Cas9 designed to target exon 2 of NRF2 to create individual clones with random indel patterns. A total of three clones, 1-17, 2-16, and 2-23, were isolated and expanded. All three clones were collected for genomic DNA isolation and sanger sequencing to confirm the indels present. The DECODR program was used to deconvolute the sanger sequencing of each clone. The A549 cell line is polyploid and therefore, these clones contain 3 alleles of the NRF2 gene. Clone 1-17 contains −2, −2, −13 base pair deletions. Clone 2-16 contains a −1 base pair deletion across all alleles. Clone 2-23 contains two wildtype alleles and a −2 base pair deletion. A cell proliferation assay was used to assess the functionality of NRF2 after CRISPR targeting in combination with cisplatin treatment. […] Absorbance values for each clone and concentration were normalized by dividing the absorbance by the absorbance of each control well (0 μM). Normalized values for each clone at each concentration were then averaged across and standard error of the mean was calculated. […]
Several A549 NRF2 knockout clones were created and used for dose curves with Cisplatin and Carboplatin (0-10 uM concentration). […] These genomic profiles were analyzed by TIDE and DECODR. […]

[2] = system: NRF2 knockout A549 cells (2-11); assay: MTS cell proliferation assay, NRF2 knockout A549 cells (2-11); format: cell-based, human
Protocol: (§1) Cell viability was evaluated using the CellTiter 96 Aqueous Non-Radioactive Cell Proliferation Assay (Promega, Madison, Wis.). A549 cell lines were plated at 2×10^3 cells per well and allowed to culture for 24 hours. The cell media was then aspirated, the cells washed with PBS, then exposed to the MTS reagent for 3 hours. After 3 hours of MTS bio-reduction by proliferating cells, the formazan product's absorbance was measured using a 450 nm filter on an Infinite 2000 PRO microplate reader (Tecan, Mannadorf, Switzerland). Cell viability after drug exposure was evaluated using the CellTiter 96 Aqueous Non-Radioactive Cell Proliferation Assay. A549 cell lines were plated at 2×10^3 cells per well and allowed to culture for 24 hours. The cells were then treated with cisplatin, carboplatin, or a combination of cisplatin and vinorelbine for three days. The cell media was then aspirated, the cells washed with PBS, then exposed to the MTS reagent for 3 hours. After 3 hours of MTS bio-reduction by proliferating cells, the formazan product's absorbance was measured using a 450 nm filter on an Infinite 2000 PRO microplate reader.

wild type A549 cells = assay: MTS cell proliferation assay, wild type A549 cells; format: cell-based, human
Protocol: as §1

wild type A549 tumors = assay: Xenograft mouse model, wild type A549 tumors; format: in vivo, athymic nude mice; conditions: for tumor growth over 16 days: tail vein day 0, 3, 6, 9, cisplatin 2 mg/kg, cisplatin 5 mg/kg + vinorelbine 5 mg/kg, carboplatin 25 mg/kg
Protocol: (§2) The human xenograft model was established using methodology reported previously. Kellar et al., Biomed Res. Int. […] Female athymic nude mice (Envigo, 5-6 weeks old) were used in this study. Approximately 5×10^6 cells (wild type A549 or homozygous knockout (clonal expansion 2-11)) suspended in PBS with 20% Matrigel were injected subcutaneously into right flank of each mouse. Tumor volume was measured three times a week with a digital caliper once palpable, and calculated using the formula, tumor size=ab^2/2, where ‘a’ is the larger and ‘b’ is the smaller of the two dimensions. When tumors grew up to a mean volume of around 100 mm^3, A549 tumor bearing mice or A549-2-11 tumor bearing mice were randomly divided into 7 groups (N=5 for each group) respectively and subject to dose/regimen-finding study. […] Tumor volume and body weight was closely monitored over time. After 16 days, the animals were sacrificed, with tumor removed, weighed and processed for molecular analysis. Mice were euthanized. The data were expressed as mean±SD. Student's t-test and one-way or two-way ANOVA was used to assess the significance of difference. A P value<0.05 was considered significant.
(§3) A549 xenografts were resected on day 16, snap frozen in liquid nitrogen and stored in −80° C. until usage. All immunofluorescence staining was performed as previously described. Wang et al., Investig. Opthalmology Vis. […] Briefly, tumors were embedded in Optimum Cutting Temperature (Tissue Tek, Torrance, Calif., USA) and 16-μm-thick sections were obtained with a Leica CM3050 cryostat (Leica Microsystems, Buffalo Grove, Ill., USA), and mounted on slides. Slides were fixed and incubated with blocking buffer for 1 hour at room temperature. […] Sections were washed in PBS, then mounted with SlowFade Gold antifade mountant with DAPI (Invitrogen, Carlsbad, Calif., USA). Images were obtained with a Zeiss Observer.Z1 microscope (Carl Zeiss, Inc., Gottingen, Germany). The TUNEL assay was conducted with In Situ Cell Death Detection Kit, Fluorescein (Roche, Base, Switzerland), following the manufacturer's instructions. […]

[3] = system: NRF2 knockout A549 (2-11) tumors; assay: Xenograft mouse model, NRF2 knockout A549 (2-11) tumors; format: in vivo, athymic nude mice; conditions: cisplatin 2 mg/kg
Protocol: as §2, §3

[4] = system: R34G-mutated NRF2 sequence; assay: In vitro cleavage reaction, R34G-mutated NRF2 amplicons; format: biochemical, human; conditions: A549 R34G-6 amplicon, 0.5-5 pmol RNP, gel electrophoresis
Protocol: (§4) As proof of concept, an in vitro cleavage reaction was conducted to assess the level of discrimination using the R34G guide RNA in a ribonucleoprotein complex (RNP). The in vitro cleavage reaction encompasses complexing target specific-guide RNA with Cas9 protein to form a ribonucleoprotein (RNP). The RNP is incubated with DNA of interest (100 ng) and the reaction and cleavage products are visualized by gel electrophoresis. For this experiment, wildtype and R34G-mutated NRF2 PCR products (901 bp) from an NRF2 expression plasmid (FIG. 21) were incubated with R34G-targeting RNP complex (1 μM) and cleavage products were visualized by gel electrophoresis, shown in FIG. 22.
Once the sequences were verified, genomic DNA from each cell line was used to amplify exon 2 of NRF2. The PCR products (530 bp) from each cell line were then used in in vitro cleavage reactions under various parameters to test specificity and fidelity of the R34G-targeting RNP. For these cleavage reactions, expected cleavage products would appear at 385 and 145 bp as indicated by the red lines along the ladder, with uncut product appearing at 530 bp. FIG. 24 depicts the gel image from an in vitro cleavage reaction using wildtype NRF2 sequence from parental A549 cells and R34G-mutated NRF2 sequence from the A549 R34G-6 cells. An increasing concentration (0.5-5 pmol) of R34G-targeting RNP was used to determine the threshold and fidelity of the sequence. […] Uncut product (top band, 530 bp) can still be seen in lanes 7-10, which corresponds to the heterozygosity of the R34G mutation in the A549 R34G-6 cell line. Therefore, the wildtype NRF2 allele in the A549 R34G-6 cell line acts as an internal negative control.
Another in vitro cleavage reaction was conducted to assess the cleavage efficiency of the wildtype NRF2 sequence to ensure the R34G-targeting RNP was, in fact, not cleaving the wildtype NRF2 sequence because of the lack of the R34G mutation. A guide RNA with a cut site 29 bp upstream (labeled Neh2 RNP) from the R34G RNP cut site was selected and used as a positive cleavage control. […] Lanes 1-8 were reactions using wildtype NRF2 sequence while lanes 9-16 were reactions using R34G-mutated NRF2 sequence. In lanes 2-4 and 10-12, PCR products were incubated with increasing concentrations (1, 3 & 5 pmol) of RNP targeting the beginning of exon 2 (Neh2 RNP). The Neh2 guide RNA sequence is: 5′ […] 3′ (SEQ ID NO:13) which is a native CRISPR site and used as the positive control for cleavage for these reactions. […] In lanes 6-8 and 14-16, PCR products were incubated with increasing concentrations (1, 3 & 5 pmol) of R34G-targeting RNP. […] This further reinforces the specificity of the R34G-targeting RNP only recognizing the target DNA in the presence of the R34G mutation in exon 2 of NRF2. […]

wildtype NRF2 sequence = assay: In vitro cleavage reaction, wildtype NRF2 amplicons; format: biochemical, human; conditions: A549 or H1703 parental amplicons, 0.5-5 pmol RNP, gel electrophoresis
Protocol: as §4
Once the sequences were verified, genomic DNA from each cell line was used to amplify exon 2 of NRF2. The PCR products (530 bp) from each cell line were then used in in vitro cleavage reactions under various parameters to test specificity and fidelity of the R34G-targeting RNP. For these cleavage reactions, expected cleavage products would appear at 385 and 145 bp as indicated by the red lines along the ladder, with uncut product appearing at 530 bp. FIG. 24 depicts the gel image from an in vitro cleavage reaction using wildtype NRF2 sequence from parental A549 cells and R34G-mutated NRF2 sequence from the A549 R34G-6 cells. […]

N.N.[Cl][Pt][Cl] [cisplatin]
sensitivity to cisplatin (MTS), clones 1-17 and 2-16 [1]: relatively the same trend of sensitivity | sensitivity to cisplatin (MTS), clone 2-23 ([1]; two wildtype alleles and -2 bp deletion): even higher resistance than the wildtype cells | cisplatin concentration with loss of proliferation ([2]; 2-11 knockout A549, 72 hours): ≥ 1 µM | chemosensitivity (MTS cell proliferation) ([2]; 2-11 knockout A549, increasing dosages, 72 hours): heightened sensitivity | cisplatin concentration at which proliferation is adversely affected (wild type A549 cells; wild type A549, 72 hours): ≥ 5 µM | chemosensitivity (MTS cell proliferation) (wild type A549 cells; wild type A549, increasing dosages, 72 hours): resistant to high dosages of Cisplatin | Ki67 staining of xenograft tumors (wild type A549 tumors; cisplatin 2 mg/kg versus saline, day 16): no difference in Ki67 levels | tumor growth over 16 days (wild type A549 tumors): proliferate aggressively | tumor growth over 16 days (wild type A549 tumors; listed as Cisplatin): not inhibited by the drug | Ki67 staining of xenograft tumors ([3]; day 16): substantially lower | tumor growth over 16 days ([3]; tail vein day 0, 3, 6, 9, cisplatin 5 mg/kg + vinorelbine 5 mg/kg, carboplatin 25 mg/kg): proliferation of the implanted cells is arrested, and the tumor size is maintained at the same level; also recorded: smallest tumors; also recorded: significant reduction in tumor cell proliferation

5′ TGGATTTGATTGACATACTTTGG 3′ [Neh2 RNP]
cleavage of R34G-mutated NRF2 amplicon (530 bp) [4]: can be seen in both wildtype and R34G-mutated NRF2 sequences | cleavage of wildtype NRF2 amplicon (530 bp) (wildtype NRF2 sequence): can be seen in both wildtype and R34G-mutated NRF2 sequences

— US11505797B2, “Gene knockout of variant NRF2 for treatment of cancer” (Christiana Care Health Services, Inc., priority 2019, dated 2022)
